Article PMC11012124, “Synthesis of Novel Triazine-Based Chalcones and 8,9-dihydro-7H-pyrimido[4,5-b][1,4]diazepines as Potential Leads in the Search of Anticancer, Antibacterial and Antifungal Agents” (International Journal of Molecular Sciences, 2024)
Values after ≈ are worked out from the molar mass of the structure shown. Like-named read-outs stand apart in the source and are kept apart here.

Key:
60 cancer cell lines = test: NCI-60 one-dose screen (10 μM); format: cell-based; conditions: Homo sapiens; one dose of 10 μM, mean over 60 cancer cell lines; read-out: Mean Growth Percent (MGP)
Text: Additionally, the mean of the growth percentages (MGP) of each compound against all the 60 cancer cell lines is also reported, which is used as one of the selection criteria to continue with tests at five concentration doses.

[1] = test system: N. gonorrhoeae ATCC 49226; test: MIC on GC agar plates; format: cell-based, Neisseria gonorrhoeae
Protocol: An initial screening for bacterial inhibition was performed by the agar diffusion method. […] DMSO and TSB were included as negative controls. Gentamicin and trimethoprim sulfamethoxazole were included as a positive control for growth inhibition. Derivatives showing growth inhibition were tested at least twice before being selected for the microdilution test. For N. gonorrhoeae, the agar diffusion method was also used for screening with some modifications. […] Penicillin and tetracycline were used as controls. […] Briefly, GC agar supplemented with 1% isovitalex was prepared with increasing concentrations of the new compounds and inoculated with 10 µL of a bacterial suspension (1 × 10^4 CFU). The lowest concentration of the compound that inhibited bacterial growth was determined as the MIC. Bacterial growth was examined and verified using the oxidase test. The experiments were performed in duplicate in at least two independent assays.

[2] = test system: human red blood cells (huRBC); test: Hemolytic activity, spectrophotometric; format: cell-based; conditions: 200 μg/mL, 24 h, 37 °C
[3] = test system: M. tuberculosis ATCC 27294; test: Antitubercular broth microdilution MIC; format: cell-based; conditions: Mycobacterium tuberculosis; M. tuberculosis ATCC 27294 (H37Rv); read-out: Minimum inhibitory concentration (MIC)
A. flavus (ATCC 9170) = test: Antifungal broth microdilution (CLSI); format: cell-based; conditions: ATCC9170; Afl: Aspergillus flavus
Protocol: (§1) Several of the obtained triazine derivatives were evaluated against sensitive fungal species comprising of two yeasts (Candida albicans (ATCC 10231), Cryptococcus neoformans (ATCC 32264)), three dermatophytes (Microsporum gypseum (CCC 115), Trichophyton rubrum (CCC 134-2000), Trichophyton mentagrophytes (CCC 202-2000)), and three Aspergillus fungi ((A. [NT] 26934), A. niger (ATCC 9029), and A. flavus (ATCC 9170)). […] Broth microdilution techniques were performed in 96-well microplates according to the Reference Method for Broth Dilution Antifungal Susceptibility Testing of Yeasts, document M27-A3 [86] and of Filamentous Fungi […]-A8 [87]. […] An inoculum suspension (100 μL) was added to each well (final well volume = 200 μL). One growth control well (containing medium, inoculum, and the same amount of DMSO as used for each compound) and one sterility control well (sample, medium, and sterile water instead of inoculum) were included for each fungus tested. Microtiter plates were incubated in a dark, humid chamber at 30 °C for the time necessary for each fungus. Amphotericin B, Terbinafine, Fluconazole and Itraconazole were used as a positive control. The tests were performed in triplicate.

[4] = test system: A. fumigatus (ATCC 26934); test: Antifungal broth microdilution (CLSI); format: cell-based; conditions: ATCC26934; Afu: Aspergillus fumigatus
Protocol: as §1

A. niger (ATCC 9029) = test: Antifungal broth microdilution (CLSI); format: cell-based; conditions: ATCC9029; Ani: Aspergillus niger
Protocol: as §1

[5] = test system: Candida albicans (ATCC 10231); test: Antifungal broth microdilution (CLSI); format: cell-based; conditions: ATCC10231; Ca: Candida albicans
Protocol: as §1

[6] = test system: Cryptococcus neoformans (ATCC 32264); test: Antifungal broth microdilution (CLSI); format: cell-based; conditions: ATCC32264; Cn: Cryptococcus neoformans
Protocol: as §1

[7] = test system: Microsporum gypseum (CCC 115); test: Antifungal broth microdilution (CLSI); format: cell-based; conditions: Nannizzia gypsea; Mg: Microsporum gypseum
Protocol: as §1

[8] = test system: Trichophyton mentagrophytes (CCC 202-2000); test: Antifungal broth microdilution (CLSI); format: cell-based; conditions: Tm: Trichophyton mentagrophytes
Protocol: as §1

[9] = test system: Trichophyton rubrum (CCC 134-2000); test: Antifungal broth microdilution (CLSI); format: cell-based; conditions: Tr: Trichophyton rubrum
Protocol: as §1

[10] = Hemolytic activity, spectrophotometric; format: cell-based, human; conditions: human, human red blood cells (huRBC), 5% hematocrit, 200 μg/mL, 37 °C
MOLT-4 = test: cells; conditions: Homo sapiens, MOLT-4, 48 h
HCT-116 = test: cells; conditions: Homo sapiens, HCT-116, 48 h
CAKI-1 = test: cells; conditions: Homo sapiens, CAKI-1, 48 h
RXF 393 = test: cells; conditions: Homo sapiens, RXF 393, 48 h
Galleria mellonella = test: Toxicity in the Galleria mellonella model; conditions: G. mellonella larvae, at the higher doses
Protocol: G mellonella larvae were cultivated in the laboratory and healthy, beige larvae weighing 150–200 mg, were selected for toxicity assays.

S. aureus ATCC 43300 [11] = test: Antibacterial MIC, microdilution; format: cell-based; conditions: Staphylococcus aureus; S. aureus ATCC 43300 (MRSA)
S. aureus ATCC 43300 [12] = conditions: tetracycline; cited from earlier work
[13] = test system: N. gonorrhoeae ATCC 49226; conditions: control drugs, range in parenthesis; cited from earlier work
AChE = test system: AChE; parameters: method as in PMID 34795867, PMID 35252706, doi:10.1016/j.molstruc.2021.132275, PMID 18811208, doi:10.1016/j.molstruc.2022.132498; conditions: cited from earlier work
[14] = test system: Mycobacterium tuberculosis H37Rv; parameters: method as in PMID 34795867, PMID 35252706, doi:10.1016/j.molstruc.2021.132275, PMID 18811208, doi:10.1016/j.molstruc.2022.132498; conditions: cited from earlier work
[15] = Neisseria gonorrhoeae, ATCC49226, read-out: MIC

Compound | activity at 10 µM (60 cancer cell lines) [%] | MIC [1, 15] [µg/mL] | MIC [3] [µg/mL] | MIC (A. flavus (ATCC 9170)) [µg/mL] | MIC [4] [µg/mL] | MIC (A. niger (ATCC 9029)) [µg/mL] | MIC [5] [µg/mL] | MIC [6] [µg/mL] | MIC [7] [µg/mL] | MIC [8] [µg/mL] | MIC [9] [µg/mL] | hemolysis at 24 h, 200 µg/mL [10] [%] | other results
COc1cc(C2CC(c3ccc(C(F)(F)F)cc3)=Nc3c(N)nc(N)nc3N2)ccc1Oc1nc(NCCO)nc(N2CCOCC2)n1 (centres unmarked) [28g] | 99.4 | 8 (≈ 12 µM) |  |  |  |  |  |  |  |  |  |  | % Hemolysis [2]: 100%
COc1ccc(C2=Nc3c(N)nc(N)nc3NC(c3ccc(Oc4nc(Nc5ccc(F)cc5)nc(N(C)C)n4)c(OC)c3)C2)cc1 (centres unmarked) [29c] | 64.2 | 62.5 (≈ 98 µM) | 1.2 (≈ 1.88 µM) | > 250 | > 250 | > 250 | > 250 | > 250 | 125 (≈ 196 µM) | > 250 | > 250 | 2.9 | 
COc1cc(C2CC(c3cc(OC)c(OC)c(OC)c3)=Nc3c(N)nc(N)nc3N2)ccc1Oc1nc(Nc2ccc(F)cc2)nc(N(C)C)n1 (centres unmarked) [29d] | 54.5 | 16.1 (≈ 23.1 µM) | 5 (≈ 7.17 µM) |  |  |  |  |  |  |  |  | > 75 | % Hemolysis [2]: 75%
COc1cc(C2CC(c3ccc(F)cc3)=Nc3c(N)nc(N)nc3N2)ccc1Oc1nc(Nc2ccc(F)cc2)nc(N(C)C)n1 (centres unmarked) [29f] | 45.2 | 0.5 (≈ 0.799 µM) | 2.5 (≈ 4 µM) | > 250 | > 250 | > 250 | > 250 | > 250 | 125 (≈ 200 µM) | > 250 | > 250 | 0 | 
COc1cc(C2CC(c3ccc(C(F)(F)F)cc3)=Nc3c(N)nc(N)nc3N2)ccc1Oc1nc(Nc2ccc(F)cc2)nc(N(C)C)n1 (centres unmarked) [29g] | 40.9 | ≥ 500 | 5 (≈ 7.4 µM) | > 250 | > 250 | > 250 | > 250 | > 250 | 125 (≈ 185 µM) | > 250 | > 250 |  | GI50 (MOLT-4): 1710 nM; CC50 (MOLT-4; read-out: LC50): > 100000 nM; GI50 (HCT-116): 1760 nM; CC50 (HCT-116; read-out: LC50): 7560 nM; GI50 (CAKI-1): 1650 nM; CC50 (CAKI-1; read-out: LC50): > 100000 nM; GI50 (RXF 393): 1220 nM; CC50 (RXF 393; read-out: LC50): 34100 nM
COc1cc(C2CC(c3ccc(S(=O)(=O)NCCNc4nc(N(C)C)nc(N5CCOCC5)n4)cc3)=Nc3c(N)nc(N)nc3N2)cc(OC)c1OC (centres unmarked) [30d] | 95 | 16.1 (≈ 21.5 µM) |  | > 250 | > 250 | > 250 | > 250 | > 250 | > 250 | > 250 | 125 (≈ 167 µM) | 11 | mortality (Galleria mellonella): ≤ 25%
C[C@@H]1[C@H](O)[C@@H](C)/C=C/C=C/C=C/C=C/C=C/C=C/C=C/[C@H](O[C@@H]2O[C@H](C)[C@@H](O)[C@H](N)[C@@H]2O)C[C@@H]2O[C@](O)(C[C@@H](O)C[C@@H](O)[C@H](O)CC[C@@H](O)C[C@@H](O)CC(=O)O[C@H]1C)C[C@H](O)[C@H]2C(=O)O [Amphotericin B, reference compound] |  |  |  | 0.5 (≈ 0.541 µM) | 0.5 (≈ 0.541 µM) | 0.5 (≈ 0.541 µM) | 0.5 (≈ 0.541 µM) | 0.25 (≈ 0.271 µM) | 0.125 (≈ 0.135 µM) | 0.075 (≈ 0.0812 µM) | 0.075 (≈ 0.0812 µM) |  | 
CN(C)[C@@H]1C(O)=C(C(N)=O)C(=O)[C@@]2(O)C(O)=C3C(=O)c4c(O)cccc4[C@@](C)(O)[C@H]3C[C@@H]12 [Tetracycline, reference compound] |  | 1 (≈ 2.25 µM) |  |  |  |  |  |  |  |  |  |  | MIC (S. aureus ATCC 43300 [11]): 0.05 µg/mL (≈ 0.113 µM); MIC range (S. aureus ATCC 43300 [12]): 0.05 to 0.25 µg/mL; MIC range values for this strain [13]: 0.25 to 1.0 µg/mL
CN(c1nc(Cl)nc(N2CCN(Cc3nc4ccccc4[nH]3)CC2)n1)C1CCCCC1 [compound 2] |  |  |  |  |  |  |  |  |  |  |  |  | IC50 (AChE): 44 nM
O=C(/C=C/c1ccc(F)cc1F)c1ccc(Nc2nc(Cl)nc(Cl)n2)cc1 [compound 3] |  |  |  |  |  |  |  |  |  |  |  |  | MIC [14]: 3.125 µg/mL (≈ 7.67 µM)
CC(=O)c1ccc(S(=O)(=O)NCCNc2nc(N(C)C)nc(N3CCOCC3)n2)cc1 [compound 17] | 108 |  |  | > 250 | > 250 | > 250 | > 250 | > 250 | > 250 | > 250 | 125 (≈ 278 µM) | 1.6 | 
Penicillin [reference compound] |  |  |  |  |  |  |  |  |  |  |  |  | MIC [1]: 0.25 µg/mL; MIC range values for this strain [13]: 0.25 to 1.0 µg/mL
